In patent US20250255867A1 (Kadmon Corporation, LLC, priority 2022, published 2025):

Details: Cohort 3 400 mg QD
Procedure: All responses were assessed by the investigators.
Reported Adverse Events. […] All-cause mortality data collected during the study were assessed for all enrolled participants. Disease progression related death was not reported as AE.
Number of Participants With Treatment-emergent Adverse Events (TEAEs), and Treatment-emergent Serious Adverse Events (TESAEs). […] TEAEs included both SAEs and non-SAEs. […] Analysis was performed on safety population which included all participants who received at least 1 dose of study medication.

CC(C)NC(=O)COc1cccc(-c2nc(Nc3ccc4[nH]ncc4c3)c3ccccc3n2)c1 [Belumosudil, 2-{3-[4-(1H-indazol-5-ylamino)-2-quinazolinyl]phenoxy}-N-(propan-2-yl) acetamide]
Glaucoma: Affected/At Risk (%): (0%)
Glucose urine present: # Events: 3
Glucose urine present: Affected/At Risk: 1/21
Glucose urine present: Affected/At Risk (%): (4.76%)
Graft versus host disease in gastrointestinal tract: # Events: 0
Graft versus host disease in gastrointestinal tract: Affected/At Risk: 0/21
Graft versus host disease in gastrointestinal tract: Affected/At Risk (%): (0%)
Gynaecomastia: # Events: 0
Gynaecomastia: Affected/At Risk: 0/21
Gynaecomastia: Affected/At Risk (%): (0%)
Haematuria: # Events: 2
Haematuria: Affected/At Risk: 1/21
Haematuria: Affected/At Risk (%): (4.76%)
Hair growth abnormal: # Events: 0
Hair growth abnormal: Affected/At Risk: 0/21
Hair growth abnormal: Affected/At Risk (%): (0%)
Headache: # Events: 8
Headache: Affected/At Risk: 6/21
Headache: Affected/At Risk (%): (28.57%)
Hodgkin's disease recurrent: # Events: 0
Hodgkin's disease recurrent: Affected/At Risk: 0/21
Hodgkin's disease recurrent: Affected/At Risk (%): (0%)
Hordeolum: # Events: 1
Hordeolum: Affected/At Risk: 1/21
Hordeolum: Affected/At Risk (%): (4.76%)
Hot flush: # Events: 0
Hot flush: Affected/At Risk: 0/21
Hot flush: Affected/At Risk (%): (0%)
Hyperglycemia: # Events: 8
Hyperglycemia: Affected/At Risk: 3/21
Hyperglycemia: Affected/At Risk (%): (14.29%)
Hyperhidrosis: # Events: 1
Hyperhidrosis: Affected/At Risk: 1/21
Hyperhidrosis: Affected/At Risk (%): (4.76%)
Hyperkalaemia: # Events: 4
Hyperkalaemia: Affected/At Risk: 3/21
Hyperkalaemia: Affected/At Risk (%): (14.29%)
Hypertension: # Events: 6
Hypertension: Affected/At Risk: 4/21
Hypertension: Affected/At Risk (%): (19.05%)
Hyperthyroidism: # Events: 1
Hyperthyroidism: Affected/At Risk: 1/21
Hyperthyroidism: Affected/At Risk (%): (4.76%)
Hypertriglyceridaemia: # Events: 0
Hypertriglyceridaemia: Affected/At Risk: 0/21
Hypertriglyceridaemia: Affected/At Risk (%): (0%)
Hyperuricaemia: # Events: 5
Hyperuricaemia: Affected/At Risk: 3/21
Hyperuricaemia: Affected/At Risk (%): (14.29%)
Hypoaesthesia: # Events: 1
Hypoaesthesia: Affected/At Risk: 1/21
Hypoaesthesia: Affected/At Risk (%): (4.76%)
Hypocalcaemia: # Events: 1
Hypocalcaemia: Affected/At Risk: 1/21
Hypocalcaemia: Affected/At Risk (%): (4.76%)
Hypogonadism: # Events: 0
Hypogonadism: Affected/At Risk: 0/21
Hypogonadism: Affected/At Risk (%): (0%)
Hypokalaemia: # Events: 0
Hypokalaemia: Affected/At Risk: 0/21
Hypokalaemia: Affected/At Risk (%): (0%)
Hypomagnesaemia: # Events: 1
Hypomagnesaemia: Affected/At Risk: 1/21
Hypomagnesaemia: Affected/At Risk (%): (4.76%)
Hyponatraemia: # Events: 2
Hyponatraemia: Affected/At Risk: 2/21
Hyponatraemia: Affected/At Risk (%): (9.52%)
Hypophosphataemia: # Events: 1
Hypophosphataemia: Affected/At Risk: 1/21
Hypophosphataemia: Affected/At Risk (%): (4.76%)
Hypothermia: # Events: 0
Hypothermia: Affected/At Risk: 0/21
Hypothermia: Affected/At Risk (%): (0%)
Hypothyroidism: # Events: 4
Hypothyroidism: Affected/At Risk: 3/21
Hypothyroidism: Affected/At Risk (%): (14.29%)
Hypoxia: # Events: 3
Hypoxia: Affected/At Risk: 3/21
Hypoxia: Affected/At Risk (%): (14.29%)
Impaired healing: # Events: 0
Impaired healing: Affected/At Risk: 0/21
Impaired healing: Affected/At Risk (%): (0%)
Influenza like illness: # Events: 0
Influenza like illness: Affected/At Risk: 0/21
Influenza like illness: Affected/At Risk (%): (0%)
Influenza: # Events: 2
Influenza: Affected/At Risk: 2/21
Influenza: Affected/At Risk (%): (9.52%)
Insomnia: # Events: 3
Insomnia: Affected/At Risk: 3/21
Insomnia: Affected/At Risk (%): (14.29%)
Irritability: # Events: 0
Irritability: Affected/At Risk: 0/21
Irritability: Affected/At Risk (%): (0%)
Joint range of motion decreased: # Events: 1
Joint range of motion decreased: Affected/At Risk: 1/21
Joint range of motion decreased: Affected/At Risk (%): (4.76%)
Lacrimation increased: # Events: 0
Lacrimation increased: Affected/At Risk: 0/21
Lacrimation increased: Affected/At Risk (%): (0%)
Leukaemia recurrent: # Events: 0
Leukaemia recurrent: Affected/At Risk: 0/21
Leukaemia recurrent: Affected/At Risk (%): (0%)
Leukocytosis: # Events: 1
Leukocytosis: Affected/At Risk: 1/21
Leukocytosis: Affected/At Risk (%): (4.76%)
Ligament sprain: # Events: 0
Ligament sprain: Affected/At Risk: 0/21
Ligament sprain: Affected/At Risk (%): (0%)
Limb injury: # Events: 1
Limb injury: Affected/At Risk: 1/21
Limb injury: Affected/At Risk (%): (4.76%)
Macular degeneration: # Events: 0
Macular degeneration: Affected/At Risk: 0/21
Macular degeneration: Affected/At Risk (%): (0%)
Migraine: # Events: 0
Migraine: Affected/At Risk: 0/21
Migraine: Affected/At Risk (%): (0%)
Muscle spasms: # Events: 6
Muscle spasms: Affected/At Risk: 6/21
Muscle spasms: Affected/At Risk (%): (28.57%)
Muscle spasticity: # Events: 1
Muscle spasticity: Affected/At Risk: 1/21
Muscle spasticity: Affected/At Risk (%): (4.76%)
Muscular weakness: # Events: 2
Muscular weakness: Affected/At Risk: 2/21
Muscular weakness: Affected/At Risk (%): (9.52%)
Musculoskeletal chest pain: # Events: 1
Musculoskeletal chest pain: Affected/At Risk: 1/21
Musculoskeletal chest pain: Affected/At Risk (%): (4.76%)
Myalgia: # Events: 3
Myalgia: Affected/At Risk: 3/21
Myalgia: Affected/At Risk (%): (14.29%)
Nail disorder: # Events: 0
Nail disorder: Affected/At Risk: 0/21
Nail disorder: Affected/At Risk (%): (0%)
Nasal congestion: # Events: 1
Nasal congestion: Affected/At Risk: 1/21
Nasal congestion: Affected/At Risk (%): (4.76%)
Nausea: # Events: 12
Nausea: Affected/At Risk: 9/21
Nausea: Affected/At Risk (%): (42.86%)
Neck pain: # Events: 0
Neck pain: Affected/At Risk: 0/21
Neck pain: Affected/At Risk (%): (0%)
Nephrotic syndrome: # Events: 0
Nephrotic syndrome: Affected/At Risk: 0/21
Nephrotic syndrome: Affected/At Risk (%): (0%)
Neuropathy peripheral: # Events: 2
Neuropathy peripheral: Affected/At Risk: 1/21
Neuropathy peripheral: Affected/At Risk (%): (4.76%)
Neutrophil count decreased: # Events: 1
Neutrophil count decreased: Affected/At Risk: 1/21
Neutrophil count decreased: Affected/At Risk (%): (4.76%)
Nocturia: # Events: 0
Nocturia: Affected/At Risk: 0/21
Nocturia: Affected/At Risk (%): (0%)
Non-cardiac chest pain: # Events: 1
Non-cardiac chest pain: Affected/At Risk: 1/21
Non-cardiac chest pain: Affected/At Risk (%): (4.76%)
Obesity: # Events: 0
Obesity: Affected/At Risk: 0/21
Obesity: Affected/At Risk (%): (0%)
Oedema peripheral: # Events: 6
Oedema peripheral: Affected/At Risk: 6/21
Oedema peripheral: Affected/At Risk (%): (28.57%)
Oedema: # Events: 0
Oedema: Affected/At Risk: 0/21
Oedema: Affected/At Risk (%): (0%)
Oesophageal ulcer: # Events: 0
Oesophageal ulcer: Affected/At Risk: 0/21
Oesophageal ulcer: Affected/At Risk (%): (0%)
Oral candidiasis: # Events: 0
Oral candidiasis: Affected/At Risk: 0/21
Oral candidiasis: Affected/At Risk (%): (0%)
Oropharyngeal pain: # Events: 1
Oropharyngeal pain: Affected/At Risk: 1/21
Oropharyngeal pain: Affected/At Risk (%): (4.76%)
Orthopnoea: # Events: 0
Orthopnoea: Affected/At Risk: 0/21
Orthopnoea: Affected/At Risk (%): (0%)
Osteonecrosis: # Events: 0
Osteonecrosis: Affected/At Risk: 0/21
Osteonecrosis: Affected/At Risk (%): (0%)
Osteopenia: # Events: 0
Osteopenia: Affected/At Risk: 0/21
Osteopenia: Affected/At Risk (%): (0%)
Osteoporosis: # Events: 0
Osteoporosis: Affected/At Risk: 0/21
Osteoporosis: Affected/At Risk (%): (0%)
Overdose: # Events: 0
Overdose: Affected/At Risk: 0/21
Overdose: Affected/At Risk (%): (0%)
Pain in extremity: # Events: 5
Pain in extremity: Affected/At Risk: 4/21
Pain in extremity: Affected/At Risk (%): (19.05%)
Pain: # Events: 1
Pain: Affected/At Risk: 1/21
Pain: Affected/At Risk (%): (4.76%)
Palpitations: # Events: 1
Palpitations: Affected/At Risk: 1/21
Palpitations: Affected/At Risk (%): (4.76%)
Paraesthesia: # Events: 1
Paraesthesia: Affected/At Risk: 1/21
Paraesthesia: Affected/At Risk (%): (4.76%)
Participants with TEAE: 20 (95%) participants
Participants with TESAE: 13 (62%) participants
Pericardial effusion: # Events: 0
Pericardial effusion: Affected/At Risk: 0/21
Pericardial effusion: Affected/At Risk (%): (0%)
Peripheral coldness: # Events: 0
Peripheral coldness: Affected/At Risk: 0/21
Peripheral coldness: Affected/At Risk (%): (0%)
Peripheral sensory neuropathy: # Events: 0
Peripheral sensory neuropathy: Affected/At Risk: 0/21
Peripheral sensory neuropathy: Affected/At Risk (%): (0%)
Phlebitis: # Events: 0
Phlebitis: Affected/At Risk: 0/21
Phlebitis: Affected/At Risk (%): (0%)
Photophobia: # Events: 2
Photophobia: Affected/At Risk: 2/21
Photophobia: Affected/At Risk (%): (9.52%)
Platelet count decreased: # Events: 0
Platelet count decreased: Affected/At Risk: 0/21
Platelet count decreased: Affected/At Risk (%): (0%)
Pleural effusion: # Events: 1
Pleural effusion: Affected/At Risk: 1/21
Pleural effusion: Affected/At Risk (%): (4.76%)
Pneumonia respiratory syncytial viral: # Events: 0
Pneumonia respiratory syncytial viral: Affected/At Risk: 0/21
Pneumonia respiratory syncytial viral: Affected/At Risk (%): (0%)
Pneumonia: # Events: 0
Pneumonia: Affected/At Risk: 0/21
Pneumonia: Affected/At Risk (%): (0%)
Pollakiuria: # Events: 0
Pollakiuria: Affected/At Risk: 0/21
Pollakiuria: Affected/At Risk (%): (0%)
Presyncope: # Events: 0
Presyncope: Affected/At Risk: 0/21
Presyncope: Affected/At Risk (%): (0%)
Productive cough: # Events: 2
Productive cough: Affected/At Risk: 1/21
Productive cough: Affected/At Risk (%): (4.76%)
Proteinuria: # Events: 0
Proteinuria: Affected/At Risk: 0/21
Proteinuria: Affected/At Risk (%): (0%)
Pruritus: # Events: 0
Pruritus: Affected/At Risk: 0/21
Pruritus: Affected/At Risk (%): (0%)
Pseudomonas infection: # Events: 0
Pseudomonas infection: Affected/At Risk: 0/21
Pseudomonas infection: Affected/At Risk (%): (0%)
Pulmonary mass: # Events: 1
Pulmonary mass: Affected/At Risk: 1/21
Pulmonary mass: Affected/At Risk (%): (4.76%)
Pyrexia: # Events: 3
Pyrexia: Affected/At Risk: 3/21
Pyrexia: Affected/At Risk (%): (14.29%)
Rash erythematous: # Events: 0
Rash erythematous: Affected/At Risk: 0/21
Rash erythematous: Affected/At Risk (%): (0%)
Rash maculo-papular: # Events: 0
Rash maculo-papular: Affected/At Risk: 0/21
Rash maculo-papular: Affected/At Risk (%): (0%)
Rash pustular: # Events: 0
Rash pustular: Affected/At Risk: 0/21
Rash pustular: Affected/At Risk (%): (0%)
Rash: # Events: 1
Rash: Affected/At Risk: 1/21
Rash: Affected/At Risk (%): (4.76%)
Red blood cells urine positive: # Events: 0
Red blood cells urine positive: Affected/At Risk: 0/21
Red blood cells urine positive: Affected/At Risk (%): (0%)
Renal failure: # Events: 0
